Test results taken from ChEMBL document CHEMBL5113458, “Structure-activity relationships of 2-pyrimidinecarbohydrazides as utrophin modulators for the potential treatment of Duchenne muscular dystrophy” (Bioorg Med Chem, 2022).
Values after ≈ are worked out from the molar mass of the structure shown.

Legend:
[1] = Metabolic stability in mouse hepatocytes assessed as intrinsic clearance per 10^6 cells; format: ADME, cell-based, Hepatocyte; conditions: read-out: CLH
[2] = molecular target: Utrophin (Mus musculus) (UniProt E9Q6R7); experiment: Modulation of mouse Utrophin in mouse H2K mdx cells assessed as fold increase in utrophin protein level at 0.1 to 10 uM incubated for 24 hrs by Western blot analysis; format: cell-based; conditions: filed as modulator, dose 0.1-10 µM
Utrophin (Mus musculus), sequence (E9Q6R7 as listed by the source): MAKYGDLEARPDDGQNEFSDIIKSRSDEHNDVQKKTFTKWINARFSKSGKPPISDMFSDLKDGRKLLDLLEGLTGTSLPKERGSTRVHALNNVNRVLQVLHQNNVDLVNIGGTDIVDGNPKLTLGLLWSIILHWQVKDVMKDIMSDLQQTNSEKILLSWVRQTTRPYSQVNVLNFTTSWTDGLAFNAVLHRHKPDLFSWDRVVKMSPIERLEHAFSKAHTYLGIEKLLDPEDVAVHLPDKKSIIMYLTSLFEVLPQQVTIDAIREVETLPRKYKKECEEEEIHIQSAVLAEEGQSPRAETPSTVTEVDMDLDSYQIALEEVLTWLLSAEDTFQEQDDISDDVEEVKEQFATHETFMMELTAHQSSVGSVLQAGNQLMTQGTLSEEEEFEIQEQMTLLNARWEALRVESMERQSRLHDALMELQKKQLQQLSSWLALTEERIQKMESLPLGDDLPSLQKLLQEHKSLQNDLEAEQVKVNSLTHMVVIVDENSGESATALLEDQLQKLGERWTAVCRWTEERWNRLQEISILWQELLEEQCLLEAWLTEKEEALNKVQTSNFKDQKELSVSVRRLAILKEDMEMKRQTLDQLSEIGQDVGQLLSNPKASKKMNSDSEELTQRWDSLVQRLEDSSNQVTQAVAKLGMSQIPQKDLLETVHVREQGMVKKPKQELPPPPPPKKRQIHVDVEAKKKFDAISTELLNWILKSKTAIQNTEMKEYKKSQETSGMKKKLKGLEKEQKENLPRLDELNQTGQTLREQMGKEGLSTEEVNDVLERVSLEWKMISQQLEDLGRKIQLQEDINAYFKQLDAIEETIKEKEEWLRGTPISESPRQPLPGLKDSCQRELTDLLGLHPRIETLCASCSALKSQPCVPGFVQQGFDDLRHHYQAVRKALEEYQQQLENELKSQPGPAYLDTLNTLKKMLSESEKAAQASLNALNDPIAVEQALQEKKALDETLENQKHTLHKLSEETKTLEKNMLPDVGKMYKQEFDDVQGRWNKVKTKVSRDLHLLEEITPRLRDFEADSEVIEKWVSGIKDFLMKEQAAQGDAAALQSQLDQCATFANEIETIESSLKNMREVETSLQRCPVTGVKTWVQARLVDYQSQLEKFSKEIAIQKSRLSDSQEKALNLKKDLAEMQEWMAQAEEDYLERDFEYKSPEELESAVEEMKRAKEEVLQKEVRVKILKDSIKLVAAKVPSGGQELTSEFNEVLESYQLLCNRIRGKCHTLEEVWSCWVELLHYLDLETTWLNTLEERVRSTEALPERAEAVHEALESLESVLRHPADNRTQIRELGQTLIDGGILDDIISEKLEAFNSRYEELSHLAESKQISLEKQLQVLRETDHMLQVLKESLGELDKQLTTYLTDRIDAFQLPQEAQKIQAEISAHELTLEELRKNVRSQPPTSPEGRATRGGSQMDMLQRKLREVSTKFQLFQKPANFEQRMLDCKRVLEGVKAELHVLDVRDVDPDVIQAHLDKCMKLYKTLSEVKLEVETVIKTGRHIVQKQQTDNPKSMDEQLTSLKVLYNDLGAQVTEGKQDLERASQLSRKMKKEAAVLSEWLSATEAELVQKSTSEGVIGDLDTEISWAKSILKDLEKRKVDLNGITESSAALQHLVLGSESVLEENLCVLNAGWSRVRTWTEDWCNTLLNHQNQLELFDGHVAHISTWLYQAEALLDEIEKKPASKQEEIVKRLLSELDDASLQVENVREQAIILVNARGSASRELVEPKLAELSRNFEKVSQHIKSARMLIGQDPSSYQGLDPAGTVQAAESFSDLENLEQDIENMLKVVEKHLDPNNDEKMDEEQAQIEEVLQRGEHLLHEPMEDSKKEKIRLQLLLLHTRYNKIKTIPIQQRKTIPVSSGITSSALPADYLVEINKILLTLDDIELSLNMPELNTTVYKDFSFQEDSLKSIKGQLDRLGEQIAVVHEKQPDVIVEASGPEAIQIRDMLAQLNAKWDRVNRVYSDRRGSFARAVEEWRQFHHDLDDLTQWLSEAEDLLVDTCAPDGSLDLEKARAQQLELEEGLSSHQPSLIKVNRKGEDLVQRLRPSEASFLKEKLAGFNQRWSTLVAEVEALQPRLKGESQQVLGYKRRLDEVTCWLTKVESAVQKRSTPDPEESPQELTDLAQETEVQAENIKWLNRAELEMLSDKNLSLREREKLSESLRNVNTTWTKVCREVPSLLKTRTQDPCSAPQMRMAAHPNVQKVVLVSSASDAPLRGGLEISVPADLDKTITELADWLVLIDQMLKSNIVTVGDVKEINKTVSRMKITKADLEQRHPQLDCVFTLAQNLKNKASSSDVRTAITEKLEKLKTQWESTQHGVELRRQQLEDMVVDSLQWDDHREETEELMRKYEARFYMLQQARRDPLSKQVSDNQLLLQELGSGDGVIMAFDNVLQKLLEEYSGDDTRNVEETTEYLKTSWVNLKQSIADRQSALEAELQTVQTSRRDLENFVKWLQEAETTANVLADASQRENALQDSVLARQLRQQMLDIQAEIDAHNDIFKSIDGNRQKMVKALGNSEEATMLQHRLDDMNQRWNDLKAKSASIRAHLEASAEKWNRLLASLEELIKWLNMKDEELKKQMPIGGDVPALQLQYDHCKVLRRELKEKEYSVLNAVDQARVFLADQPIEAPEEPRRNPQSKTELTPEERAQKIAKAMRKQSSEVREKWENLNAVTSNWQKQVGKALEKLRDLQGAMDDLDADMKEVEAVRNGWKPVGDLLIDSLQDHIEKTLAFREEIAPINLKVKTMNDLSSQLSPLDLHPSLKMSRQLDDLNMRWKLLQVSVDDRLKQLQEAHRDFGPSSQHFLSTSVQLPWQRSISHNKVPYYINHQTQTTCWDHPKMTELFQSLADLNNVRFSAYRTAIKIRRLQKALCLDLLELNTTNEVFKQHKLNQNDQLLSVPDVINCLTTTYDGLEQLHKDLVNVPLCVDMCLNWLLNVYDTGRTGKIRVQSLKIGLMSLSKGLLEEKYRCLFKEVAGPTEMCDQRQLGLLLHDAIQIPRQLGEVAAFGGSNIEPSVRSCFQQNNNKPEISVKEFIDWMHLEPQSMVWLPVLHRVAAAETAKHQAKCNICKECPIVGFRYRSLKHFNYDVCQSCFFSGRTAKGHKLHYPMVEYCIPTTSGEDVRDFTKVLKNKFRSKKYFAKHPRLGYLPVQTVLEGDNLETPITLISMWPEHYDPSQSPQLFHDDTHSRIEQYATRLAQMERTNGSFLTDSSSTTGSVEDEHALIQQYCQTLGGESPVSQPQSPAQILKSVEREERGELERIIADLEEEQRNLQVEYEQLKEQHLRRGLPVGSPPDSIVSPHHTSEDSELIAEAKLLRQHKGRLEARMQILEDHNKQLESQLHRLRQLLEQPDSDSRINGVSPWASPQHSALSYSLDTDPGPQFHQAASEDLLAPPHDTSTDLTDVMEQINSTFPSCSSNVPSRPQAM

[3] = Metabolic stability in mouse liver microsomes assessed as half life; format: ADME, Microsome
[4] = Metabolic stability in mouse liver microsomes assessed as intrinsic clearance per mg protein; format: ADME, Microsome; conditions: read-out: CLH
[5] = Metabolic stability in mouse hepatocytes assessed as half life; format: ADME, cell-based, Hepatocyte
[6] = Semi-thermodynamic solubility of compound at pH 7.4; format: physicochemical; conditions: buffer, read-out: Therm_solubility

Q: Which results are given for `NNC(=O)c1nc(-c2ccccc2)cc(-c2ccc(C(F)(F)F)nc2)n1`?
A: hepatocyte CLint [1]: 13 µL/min/1e6 cells; FC [2]: 2.5; half-life [3]: 7.57 h; microsomal CLint [4]: 1.53 µL/min/mg; half-life [5]: 1.77 h; solubility thermodynamic [6]: 200 µM (≈ 71.9 µg/mL)
